Source: patent US9611251B2, “Substituted piperidine compounds and their use as orexin receptor modulators” (Janssen Pharmaceutica NV, priority 2013, dated 2017)
Counter-ions that a name gives are not always drawn. Like-named read-outs stand apart in the source and are kept apart here.

Legend:
rat orexin 1 receptor = rat orexin 1 receptor (Rattus norvegicus, UniProt P56718); test: Rat orexin 1 receptor radioligand binding
Method: (§1) Data are analyzed using pc-Sandy macro and graphed on Graphpad Prism 5. For analysis, each concentration point is averaged from triplicate values and the averaged values are plotted on Graphpad Prism. The IC50 was determined by applying the following equation (GraphPad Prism 5.0, SanDiego) for one site competition where X=log (concentration) and Y=specific binding. Top denotes the total [^3H]-(1-(5-(2-fluoro-phenyl)-2-methyl-thiazol-4-yl)-1-((S)-2-(5-phenyl-(1,3,4)oxadiazol-2-ylmethyl)-pyrrolidin-1-yl)-methanone) binding, bottom denotes the nonspecific [^3H]-(1-(5-(2-fluoro-phenyl)-2-methyl-thiazol-4-yl)-1-((S)-2-(5-phenyl-(1,3,4)oxadiazol-2-ylmethyl)-pyrrolidin-1-yl)-methanone) binding. Graphpad Prism calculates Ki value from IC50 and the pre-determined Kd values for [^3H]-(1-(5-(2-fluoro-phenyl)-2-methyl-thiazol-4-yl)-1-((S)-2-(5-phenyl-(1,3,4)oxadiazol-2-ylmethyl)-pyrrolidin-1-yl)-methanone) and [3H]-EMPA. The Ki for each compound is then uploaded into 3DX. Each run comprises individual compounds in triplicate.
(§2) Rat and Human Orexin 1 Receptor Radioligand Binding Studies
After centrifugation (2K×G, 5 min at 4° C.), the supernatant was aspirated and the pellets frozen and stored at −80° C. […] Each cell pellet from a 15 cm plate was resuspended in 10 mL, stored on ice, and homogenized for 45 sec prior to addition to the reactions. Competition binding experiments in 96 well polypropylene plates were performed using [^3H]-(1-(5-(2-fluoro-phenyl)-2-methyl-thiazol-4-yl)-1-((S)-2-(5-phenyl-(1,3,4)oxadiazol-2-ylmethyl)-pyrrolidin-1-yl)-methanone) (Moraveck Corporation, specific activity=35.3 Ci/mmol), diluted to a 10 nM concentration in PBS (4 nM final). […] The final concentration of DMSO in the reactions is equal to or less than 0.1%. Total and nonspecific binding was determined in the absence and presence of 10 μM almorexant. The total volume of each reaction is 200 μL (20 μL of diluted compounds, 80 μL of [^3H]-(1-(5-(2-fluoro-phenyl)-2-methyl-thiazol-4-yl)-1-((S)-2-(5-phenyl-(1,3,4)oxadiazol-2-ylmethyl)-pyrrolidin-1-yl)-methanone) diluted in PBS and 100 μL of the cell suspension). […] The plates were washed 3 times by aspirating 30 ml PBS through the plates. Plates were dried in 55° C. oven for 60 min, scintillation fluid was added, and the radioactivity was counted on a Topcount (Packard).

human orexin 1 receptor = human orexin 1 receptor (Homo sapiens, UniProt O43613); test: Human orexin 1 receptor radioligand binding
Method: The in vitro affinity of the compounds of the invention for the rat/human orexin 1 and human orexin 2 receptors was determined by competitive radioligand binding using [^3H](1-(5-(2-fluoro-phenyl)-2-methyl-thiazol-4-yl)-1-((S)-2-(5-phenyl-(1,3,4)oxadiazol-2-ylmethyl)-pyrrolidin-1-yl)-methanone) (Langmead et al., 2004) and [^3H]EMPA (n-ethyl-2[96-methoxypyridin-3-yl)-(toluene-2-sulfonyl)-amino]-N-pyridin-3-ylmethyl acetamide), respectively (Langmead et al., 2004, British Journal of Pharmacology 141:340-346; Malherbe et al., 2004, British Journal of Pharmacology 156:1326-41).
as §1, §2
Human Embryonic Kidney 293 cells (HEK293) stably expressing rat orexin 1 receptor (Genebank accession number NM_001525) or Chinese ovary cells (CHO) stably expressing human orexin 1 receptor (Genebank accession number NM_001526) were grown to confluency in DMEM (Hyclone, cat #SH30022), 10% FBS, 1×Pen/Strep, 1× sodium pyruvate, 10 mM HEPES, 600 μg/mL G418 and DMEM/F12 (Gibco, Cat #11039), 10% FBS, 1×Pen/Strep, 600 μg/mL G418 media, respectively on 150 cm^2 tissue culture plates, washed with 5 mM EDTA in PBS (HyClone Dulbecco's Phosphate Buffered Saline 1× with Calcium and Magnesium, Cat #SH30264.01, hereafter referred to simply as PBS) and scraped into 50 ml tubes. After centrifugation (2K×G, 5 min at 4° C.), the supernatant was aspirated and the pellets frozen and stored at −80° C. Cells were resuspended in PBS in the presence of 1 tablet of protease inhibitor cocktail (Roche, Cat. #11836145001) per 50 mL. Each cell pellet from a 15 cm plate was resuspended in 10 mL, stored on ice, and homogenized for 45 sec prior to addition to the reactions. Competition binding experiments in 96 well polypropylene plates were performed using [^3H]-(1-(5-(2-fluoro-phenyl)-2-methyl-thiazol-4-yl)-1-((S)-2-(5-phenyl-(1,3,4)oxadiazol-2-ylmethyl)-pyrrolidin-1-yl)-methanone) (Moraveck Corporation, specific activity=35.3 Ci/mmol), diluted to a 10 nM concentration in PBS (4 nM final). […] The final concentration of DMSO in the reactions is equal to or less than 0.1%. Total and nonspecific binding was determined in the absence and presence of 10 μM almorexant. The total volume of each reaction is 200 μL (20 μL of diluted compounds, 80 μL of [^3H]-(1-(5-(2-fluoro-phenyl)-2-methyl-thiazol-4-yl)-1-((S)-2-(5-phenyl-(1,3,4)oxadiazol-2-ylmethyl)-pyrrolidin-1-yl)-methanone) diluted in PBS and 100 μL of the cell suspension). Reactions were run for 60 min at room temperature and terminated by filtration through GF/C filter plates (PerkinElmer, Cat. #6005174) presoaked in 0.3% polyethylenimine using the cell harvester (PerkinElmer Filtermate). The plates were washed 3 times by aspirating 30 ml PBS through the plates. Plates were dried in 55° C. oven for 60 min, scintillation fluid was added, and the radioactivity was counted on a Topcount (Packard).

human orexin 2 receptor = human orexin 2 receptor (Homo sapiens (Human), UniProt O43614); test: Human orexin 2 receptor radioligand binding ([3H]-EMPA); conditions: averages of 2-20 runs, read-out: hOX2 Ki
Method: as §1
Human Orexin 2 Receptor Radioligand Binding Studies
HEK293 stably expressing human orexin 2 receptor (Genebank accession number NM_001526) were grown to confluency in DMEM (Hyclone, cat #SH30022), 10% FBS, 1×Pen/Strep, 1× NaPyruvate, 10 mM HEPES, 600 ug/ml G418 media on 150 cm^2 tissue culture plates, washed with 5 mM EDTA in PBS (HyClone Dulbecco's Phosphate Buffered Saline 1× with Calcium and Magnesium, Cat #SH30264.01, hereafter referred to simply as PBS) and scraped into 50 ml tubes. After centrifugation (2K×G, 5 min at 4° C.), the supernatant was aspirated and the pellets frozen and stored at −80° C. […] Each cell pellet from a 15 cm plate was resuspended in 10 mL, stored on ice, and homogenized for 45 sec just prior to addition to the reactions. Competition binding experiments in 96 well polypropylene plates were performed using [^3H]-EMPA (Moraveck Corporation, specific activity=29.6 Ci/mmol), diluted to a 5 nM concentration in PBS (2 nM final concentration). […] The final concentration of DMSO in the reactions is equal to or less than 0.1%. Total and nonspecific binding was determined in the absence and presence of 10 μM almorexant. The total volume of each reaction is 200 μL (20 μL of diluted compounds, 80 μL of [^3H]-EMPA diluted in PBS and 100 μL of the cell suspension). […] The plates were washed 3 times by aspirating 30 ml PBS through the plates. Plates were dried in 55° C. oven for 60 min, scintillation fluid was added, and the radioactivity was counted on a Topcount (Packard).

[1] = rat orexin 1 receptor radioligand binding, averages of 2-20 runs, read-out: rOX1 Ki

Sequence of human orexin 2 receptor (O43614 whole entry): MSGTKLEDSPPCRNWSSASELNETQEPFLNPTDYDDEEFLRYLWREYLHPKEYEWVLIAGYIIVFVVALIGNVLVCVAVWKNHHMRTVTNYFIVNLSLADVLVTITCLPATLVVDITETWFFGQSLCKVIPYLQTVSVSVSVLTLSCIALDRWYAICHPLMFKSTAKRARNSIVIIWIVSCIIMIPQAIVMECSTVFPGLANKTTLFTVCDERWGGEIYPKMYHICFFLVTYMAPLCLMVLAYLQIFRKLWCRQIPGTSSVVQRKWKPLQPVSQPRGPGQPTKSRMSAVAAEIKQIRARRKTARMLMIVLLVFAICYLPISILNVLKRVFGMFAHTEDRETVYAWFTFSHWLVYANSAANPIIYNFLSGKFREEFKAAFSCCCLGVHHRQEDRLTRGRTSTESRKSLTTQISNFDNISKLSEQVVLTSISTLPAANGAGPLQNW

Row | Ki (rat orexin 1 receptor; [1]) | Ki (human orexin 1 receptor; human orexin 1 receptor radioligand binding, averages of 2-20 runs, read-out: hOX1 Ki) | Ki (human orexin 2 receptor) | Structure (SMILES) | Ki (rat orexin 1 receptor) | Ki (human orexin 1 receptor)
1 | 93 nM | 148 nM | – | Cc1cnc(C(=O)N2CCC[C@@H](Nc3cnc(Cl)cn3)[C@@H]2C)c(-n2nccn2)c1 (relative stereo) [Example 182, ((2S*,3R*)-3-((5-chloropyrazin-2-yl)amino)-2-methylpiperidin-1-yl)(5-methyl-3-(2H-1,2,3-triazol-2-yl)pyridin-2-yl)methanone] | – | –
2 | 8 nM | – | 2270 nM | Cc1cnc(C(=O)N2CCC[C@@H](Nc3nc4ccccc4o3)[C@@H]2C)c(-n2nccn2)c1 [Example 73, ((2S,3R)-3-(benzo[d]oxazol-2-ylamino)-2-methylpiperidin-1-yl)(5-methyl-3-(2H-1,2,3-triazol-2-yl)pyridin-2-yl)methanone] | – | –
3 | 621 nM | – | > 10000 nM | Cc1cnc(-n2nccn2)c(C(=O)N2CCC[C@@H](Oc3ncc(Cl)cn3)[C@@H]2C)c1 [Example 162, ((2S,3R)-3-((5-chloropyrimidin-2-yl)oxy)-2-methylpiperidin-1-yl)(5-methyl-2-(2H-1,2,3-triazol-2-yl)pyridin-3-yl)methanone] | – | –
4 | 447 nM | – | > 10000 nM | COc1ccc(C(=O)N2CCC[C@@H](Oc3cnc(C(F)(F)F)cn3)[C@@H]2C)c(-n2nccn2)c1 [Example 172, (4-methoxy-2-(2H-1,2,3-triazol-2-yl)phenyl)((2S,3R)-2-methyl-3-((5-(trifluoromethyl)pyrazin-2-yl)oxy)piperidin-1-yl)methanone] | – | –
5 | 504 nM | – | > 10000 nM | COc1ccc(C(=O)N2CCC[C@@H](Oc3ncc(C(F)(F)F)cn3)[C@@H]2C)c(-n2nccn2)c1 [Example 174, (4-methoxy-2-(2H-1,2,3-triazol-2-yl)phenyl)((2S,3R)-2-methyl-3-((5-(trifluoromethyl)pyrimidin-2-yl)oxy)piperidin-1-yl)methanone] | – | –
6 | 374 nM | – | > 10000 nM | Cc1cnc(-n2nccn2)c(C(=O)N2CCC[C@@H](Oc3ncc(C(F)(F)F)cn3)[C@@H]2C)c1 [Example 176, (5-methyl-2-(2H-1,2,3-triazol-2-yl)pyridin-3-yl)((2S,3R)-2-methyl-3-((5-(trifluoromethyl)pyrimidin-2-yl)oxy)piperidin-1-yl)methanone] | – | –

More lines, now with the values behind:

Row | Structure (SMILES) | Ki (rat orexin 1 receptor; [1]) | Ki (human orexin 1 receptor; human orexin 1 receptor radioligand binding, averages of 2-20 runs, read-out: hOX1 Ki) | Ki (human orexin 2 receptor) | Ki (rat orexin 1 receptor) | Ki (human orexin 1 receptor)
7 | Cc1ccc(-c2ncco2)c(C(=O)N2CCC[C@@H](Nc3ccc(C(F)(F)F)cn3)[C@@H]2C)n1 (racemic) [Example 22, (±)-trans-(2-methyl-3-((5-(trifluoromethyl)pyridin-2-yl)amino)piperidin-1-yl)(6-methyl-3-(oxazol-2-yl)pyridin-2-yl)methanone hydrochloride] | – | – | – | 36 nM | 21 nM
8 | Cc1noc(-c2cc(F)ccc2C(=O)N2CCC[C@@H](Nc3ncc(C(F)(F)F)cn3)[C@@H]2C)n1 (relative stereo) [Example 197, (4-fluoro-2-(3-methyl-1,2,4-oxadiazol-5-yl)phenyl)((2S*,3R*)-2-methyl-3-((5-(trifluoromethyl)pyrimidin-2-yl)amino)piperidin-1-yl)methanone] | 332 nM | – | 6600 nM | – | –
9 | COc1ccc(C(=O)N2CCC[C@@H](Nc3ncc(C(F)(F)F)cn3)[C@@H]2C)c(Cl)n1 (relative stereo) [Example 201, (2-chloro-6-methoxypyridin-3-yl)((2S*,3R*)-2-methyl-3-((5-(trifluoromethyl)pyrimidin-2-yl)amino)piperidin-1-yl)methanone] | > 10000 nM | – | > 10000 nM | – | –
10 | C[C@H]1[C@H](Nc2ncc(C(F)(F)F)cn2)CCCN1C(=O)c1ccc(F)cc1-c1ncco1 (relative stereo) [Example 205, (4-fluoro-2-(oxazol-2-yl)phenyl)((2S*,3R*)-2-methyl-3-((5-(trifluoromethyl)pyrimidin-2-yl)amino)piperidin-1-yl)methanone] | 411 nM | – | 5800 nM | – | –
11 | C[C@H]1[C@H](Oc2cnc(C(F)(F)F)cn2)CCCN1C(=O)c1cccnc1-n1nccn1 [Example 148, (2-(2H-1,2,3-triazol-2-yl)pyridin-3-yl)((2S,3R)-2-methyl-3-((5-(trifluoromethyl)pyrazin-2-yl)oxy)piperidin-1-yl)methanone] | 3400 nM | – | > 10000 nM | – | –
12 | C[C@H]1[C@H](Oc2ccc(C(F)(F)F)cn2)CCCN1C(=O)c1cccnc1-n1nccn1 [Example 153, (2-(2H-1,2,3-triazol-2-yl)pyridin-3-yl)((2S,3R)-2-methyl-3-((5-(trifluoromethyl)pyridin-2-yl)oxy)piperidin-1-yl)methanone] | 353 nM | – | > 10000 nM | – | –
13 | C[C@H]1[C@H](Oc2cnc(C(F)(F)F)cn2)CCCN1C(=O)c1nccnc1-c1ccccc1 [Example 173, ((2S,3R)-2-methyl-3-((5-(trifluoromethyl)pyrazin-2-yl)oxy)piperidin-1-yl)(3-phenylpyrazin-2-yl)methanone] | 423 nM | – | 8200 nM | – | –
14 | C[C@H]1[C@H](Oc2ncc(C(F)(F)F)cn2)CCCN1C(=O)c1nccnc1-c1ccccc1 [Example 178, ((2S,3R)-2-methyl-3-((5-(trifluoromethyl)pyrimidin-2-yl)oxy)piperidin-1-yl)(3-phenylpyrazin-2-yl)methanone] | 679 nM | – | > 10000 nM | – | –
